Test: In vitro non-sink dissolution, gastric-to-intestinal media transfer test
Format: physicochemical
Design: AUC free: concentration or dose not given beside the values; AUC total: unit not given here
Conditions: for AUC free: free drug; for AUC total: non-sink
[1] = Table 5 (nifedipine), Fasted Simulated Gastric (0.1 N HCl)
[2] = Table 5 (nifedipine), Fasted Simulated Intestinal (FaSSIF, pH 6.8)

- AUC free (Table 2, Fasted Simulated Gastric (0.1 N HCl)): 0.0
- AUC total (Table 2, Fasted Simulated Gastric (0.1 N HCl), 2 mg indomethacin per mL): 1020.4
- AUC free (Table 2, Fasted Simulated Intestinal (FaSSIF, H 6.8)): 63324.8
- AUC total (Table 2, Fasted Simulated Intestinal (FaSSIF, H 6.8), 1 mg indomethacin per mL): 81054.9
- AUC free [1]: 68.9
- AUC total [1]: 483.4
- AUC free [2]: 1349.5
- AUC total [2]: 2810.0
Structure (SMILES): COc1ccc2c(c1)c(CC(=O)O)c(C)n2C(=O)c1ccc(Cl)cc1 [indomethacin crystalline API, indomethacin]

Reference: patent US20180344646A1, “AMORPHOUS DISPERSION GRANULES AND ORAL DOSAGE FORMS” (PATHEON DEVELOPMENT SERVICES INC., priority 2015, published 2018)
